Experimental data reported in PubChem BioAssay (NCI).
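Values below derive from 48-hour exposures of cells grown in 96-well plates, with endpoints linearly interpolated between the two concentrations bracketing the appropriate inhibition level. TGI: concentration producing complete growth inhibition.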

Experiments:
Assay in all cases: growth of human tumour cells (NCI), 48 h
COLO 205 colon = system: COLO 205 colon
HCC-2998 colon = system: HCC-2998 colon
786-0 renal = system: 786-0 renal
SNB-19 CNS = system: SNB-19 CNS
ACHN renal = system: ACHN renal
T-47D breast = system: T-47D breast
EKVX NSCLC = system: EKVX NSCLC
MDA-MB-435 = system: MDA-MB-435
RPMI-8226 leukemia = system: RPMI-8226 leukemia
TK-10 renal = system: TK-10 renal
M14 melanoma = system: M14 melanoma
SF-268 CNS = system: SF-268 CNS
CCRF-CEM leukemia = system: CCRF-CEM leukemia
MDA-N = system: MDA-N
OVCAR-8 ovarian = system: OVCAR-8 ovarian
OVCAR-4 ovarian = system: OVCAR-4 ovarian
MCF7 breast = system: MCF7 breast
SK-MEL-5 melanoma = system: SK-MEL-5 melanoma
A549 NSCLC = system: A549 NSCLC
UO-31 renal = system: UO-31 renal
HS 578T breast = system: HS 578T breast
KM12 colon = system: KM12 colon
DU-145 prostate = system: DU-145 prostate
RXF 393 renal = system: RXF 393 renal
SK-MEL-2 melanoma = system: SK-MEL-2 melanoma
SK-MEL-28 melanoma = system: SK-MEL-28 melanoma
SF-539 CNS = system: SF-539 CNS
HT29 colon = system: HT29 colon
MALME-3M melanoma = system: MALME-3M melanoma
NCI-H522 lung = system: NCI-H522 lung
SW-620 colon = system: SW-620 colon
NCI-H226 lung = system: NCI-H226 lung
HCT-15 colon = system: HCT-15 colon
OVCAR-3 ovarian = system: OVCAR-3 ovarian
HL-60(TB) leukemia = system: HL-60(TB) leukemia
K-562 leukemia = system: K-562 leukemia
MDA-MB-231 breast = system: MDA-MB-231 breast
PC-3 prostate = system: PC-3 prostate
U251 CNS = system: U251 CNS
SR leukemia = system: SR leukemia
OVCAR-5 ovarian = system: OVCAR-5 ovarian
UACC-62 melanoma = system: UACC-62 melanoma
HCT-116 colon = system: HCT-116 colon
NCI-H23 lung = system: NCI-H23 lung
SN12C renal = system: SN12C renal
HOP-92 NSCLC = system: HOP-92 NSCLC
HOP-62 NSCLC = system: HOP-62 NSCLC
A498 renal = system: A498 renal
MOLT-4 leukemia = system: MOLT-4 leukemia
CAKI-1 renal = system: CAKI-1 renal
LOX IMVI melanoma = system: LOX IMVI melanoma
NCI/ADR-RES ovarian = system: NCI/ADR-RES ovarian
NCI-H460 lung = system: NCI-H460 lung
SK-OV-3 ovarian = system: SK-OV-3 ovarian
SNB-75 CNS = system: SNB-75 CNS
SF-295 CNS = system: SF-295 CNS
UACC-257 melanoma = system: UACC-257 melanoma
IGROV1 ovarian = system: IGROV1 ovarian

## CCOC(=O)c1c(SCCCN2CCCCC2)n(-c2ccccc2)c(=S)n(-c2ccccc2)c1=O
COLO 205 colon
  TGI: 32 µM
HCC-2998 colon
  TGI: 31.1 µM
786-0 renal
  TGI: 13.5 µM
SNB-19 CNS
  TGI: 31.4 µM
ACHN renal
  TGI: 44.7 µM
T-47D breast
  TGI: 32.6 µM
EKVX NSCLC
  TGI: 91.8 µM
MDA-MB-435
  TGI: 29.7 µM
RPMI-8226 leukemia
  TGI: > 100 µM
TK-10 renal
  TGI: 34.8 µM
M14 melanoma
  TGI: 31.9 µM
SF-268 CNS
  TGI: > 100 µM
CCRF-CEM leukemia
  TGI: 49.3 µM
MDA-N
  TGI: 28.5 µM
OVCAR-8 ovarian
  TGI: 33.6 µM
OVCAR-4 ovarian
  TGI: 31.5 µM
MCF7 breast
  TGI: 37.6 µM
SK-MEL-5 melanoma
  TGI: 30.1 µM
A549 NSCLC
  TGI: 33.9 µM
UO-31 renal
  TGI: 29.1 µM
HS 578T breast
  TGI: 46.5 µM
KM12 colon
  TGI: 34 µM
DU-145 prostate
  TGI: 29.9 µM
RXF 393 renal
  TGI: 32.2 µM
SK-MEL-2 melanoma
  TGI: 30.9 µM
SK-MEL-28 melanoma
  TGI: 31.9 µM
SF-539 CNS
  TGI: 27.9 µM
HT29 colon
  TGI: 37.5 µM
MALME-3M melanoma
  TGI: 29.8 µM
NCI-H522 lung
  TGI: 34.9 µM
SW-620 colon
  TGI: 35.4 µM
NCI-H226 lung
  TGI: 34 µM
HCT-15 colon
  TGI: 33.2 µM
OVCAR-3 ovarian
  TGI: 30.4 µM
HL-60(TB) leukemia
  TGI: 7.69 µM
K-562 leukemia
  TGI: 41.3 µM
MDA-MB-231 breast
  TGI: 46.1 µM
PC-3 prostate
  TGI: 30 µM
U251 CNS
  TGI: 30.5 µM
SR leukemia
  TGI: 67 µM
OVCAR-5 ovarian
  TGI: 34.2 µM
UACC-62 melanoma
  TGI: 25.2 µM
HCT-116 colon
  TGI: 24.8 µM
NCI-H23 lung
  TGI: 33.9 µM
SN12C renal
  TGI: 29.7 µM
HOP-92 NSCLC
  TGI: 29.1 µM
HOP-62 NSCLC
  TGI: > 100 µM
A498 renal
  TGI: 35.6 µM
MOLT-4 leukemia
  TGI: 35 µM

## COC(=O)CNC(=O)CCSc1nnc(COc2ccc(Cl)cc2)n1-c1ccccc1
COLO 205 colon
  TGI: > 100 µM
HCC-2998 colon
  TGI: > 100 µM
786-0 renal
  TGI: 42.6 µM
SNB-19 CNS
  TGI: > 100 µM
ACHN renal
  TGI: > 100 µM
CAKI-1 renal
  TGI: 26.7 µM
T-47D breast
  TGI: > 100 µM
EKVX NSCLC
  TGI: > 100 µM
LOX IMVI melanoma
  TGI: > 100 µM
MDA-MB-435
  TGI: 60.4 µM
TK-10 renal
  TGI: 35 µM
M14 melanoma
  TGI: 65.5 µM
SF-268 CNS
  TGI: 48.5 µM
CCRF-CEM leukemia
  TGI: > 100 µM
MDA-N
  TGI: 37.6 µM
OVCAR-8 ovarian
  TGI: > 100 µM
OVCAR-4 ovarian
  TGI: > 100 µM
NCI/ADR-RES ovarian
  TGI: > 100 µM
MCF7 breast
  TGI: > 100 µM
A549 NSCLC
  TGI: > 100 µM
NCI-H460 lung
  TGI: > 100 µM
UO-31 renal
  TGI: > 100 µM
KM12 colon
  TGI: > 100 µM
DU-145 prostate
  TGI: 51.5 µM
RXF 393 renal
  TGI: 67.5 µM
SK-MEL-2 melanoma
  TGI: 48.8 µM
SK-MEL-28 melanoma
  TGI: 56.9 µM
SF-539 CNS
  TGI: > 100 µM
HT29 colon
  TGI: > 100 µM
MALME-3M melanoma
  TGI: 58.3 µM
NCI-H522 lung
  TGI: 33.6 µM
SW-620 colon
  TGI: > 100 µM
NCI-H226 lung
  TGI: 84.6 µM
HCT-15 colon
  TGI: > 100 µM
SK-OV-3 ovarian
  TGI: > 100 µM
SNB-75 CNS
  TGI: 40.7 µM
OVCAR-3 ovarian
  TGI: > 100 µM
HL-60(TB) leukemia
  TGI: > 100 µM
K-562 leukemia
  TGI: > 100 µM
MDA-MB-231 breast
  TGI: 49.1 µM
PC-3 prostate
  TGI: > 100 µM
U251 CNS
  TGI: > 100 µM
SF-295 CNS
  TGI: > 100 µM
OVCAR-5 ovarian
  TGI: > 100 µM
UACC-62 melanoma
  TGI: 44 µM
HCT-116 colon
  TGI: > 100 µM
NCI-H23 lung
  TGI: > 100 µM
SN12C renal
  TGI: 45.9 µM
HOP-92 NSCLC
  TGI: > 100 µM
HOP-62 NSCLC
  TGI: > 100 µM
A498 renal
  TGI: > 100 µM
MOLT-4 leukemia
  TGI: > 100 µM
UACC-257 melanoma
  TGI: 38.8 µM
IGROV1 ovarian
  TGI: 98.7 µM
